Series [1] deals with pig kidney Na+/K+-ATPase (PKE) (Sus scrofa, UniProt P05024). The series can be described thus: Na+/K+-ATPase activity assay, purified pig kidney enzyme. Type of series: biochemical. To be noted: for Ki: 1% DMSO, PKE-1 or PKE-2, optimal turnover conditions (Figure 3).
Series [2] has as its target human kidney Na+/K+-ATPase (HKE) (Homo sapiens, UniProt P05023). The series can be described thus: Na+/K+-ATPase activity assay, purified human kidney enzyme. Type of series: biochemical. The conditions noted are these: for Ki: read-out: Ki, inhibition of Na+/K+-ATPase activity of HKE-1, HKE-1, 1% DMSO, optimal turnover conditions (Figure 4A).
In series [3] the test system is purified PKE (pig kidney Na+/K+-ATPase). To be noted: ref 11 (Laursen et al., their Figure 3); cited from earlier work.
For series [4], the system named is recombinant human kidney enzyme (Na+/K+-ATPase). The conditions noted are these: ref 14 (Katz et al., their Table 1); cited from earlier work.
The conditions of series [5]: nearly constant levels by appropriate dosage regimens; cited from earlier work.
Setting [6] is: read-out: Ki, inhibition of Na+/K+-ATPase activity of PKE.

Where two headings read alike, the source gives them in different places.

In the case of `C[C@]12C[C@@H](O)[C@H]3[C@@H](CC[C@]4(O)C[C@@H](O)C[C@@H](O)[C@]34CO)[C@@]1(O)CC[C@@H]2C1=CC(=O)OC1` [ouabagenin], in series [1] (PKE (Figure 3)), the “extent of inhibition of Na+/K+-ATPase activity” value was “complete inhibition” and the “fold less potent than ouabain in Na+/K+-ATPase activity assays” value is listed as “about 3 fold”. Also, the Ki in series [1] (setting [6]) turned out to be 3070 ± 230 nM. Moreover, the Ki in series [2] amounted to 4400 ± 270 nM. Besides, in series [3], the “extent of inhibition of the enzyme” value was “only a partial inhibitor” and the “fold less potent than ouabain by relative binding constants” value is listed as “about 800 fold”.

In the case of `C[C@@H]1O[C@@H](O[C@H]2C[C@@H](O)[C@]3(CO)[C@H]4[C@H](O)C[C@]5(C)[C@@H](C6=CC(=O)OC6)CC[C@]5(O)[C@@H]4CC[C@]3(O)C2)[C@H](O)[C@H](O)[C@H]1O` [ouabain], the “preincubation time sufficient to obtain the maximal inhibitory effect” value in series [1] (PKE-1, incubation times 10–60 min, 0.25–1000 μM) amounted to 10 min. In series [1] (large-scale PKE, specific activity 1035 μmol Pi mg–1 h–1, results not shown), the “ouabain sensitivity of large-scale PKE preparation versus single kidney PKEs” value was “not significantly different”.

With `C[C@]12CC[C@H](O)C[C@@]1(O)CC[C@@H]1[C@@H]2CC[C@]2(C)[C@@H](c3ccc(=O)oc3)C[C@H]3O[C@]132` [MBG, marinobufagenin], the Ki turned out to be 1500 ± 120 nM in series [1] (setting [6]) and 1070 ± 40 nM in series [2]. Also, the “potency relative to ouabain in Na+/K+-ATPase activity assays” value in series [2] (HKE-1 (Figure 4A)) was “equally potent”. Besides, the “fold less potent than ouabain by relative binding constants” value in series [4] is recorded as “about 200 fold”.

`C[C@H]1O[C@@H](O[C@H]2[C@@H](O)C[C@H](O[C@H]3[C@@H](O)C[C@H](O[C@H]4CC[C@@]5(C)[C@H](CC[C@@H]6[C@@H]5C[C@@H](O)[C@]5(C)[C@@H](C7=CC(=O)OC7)CC[C@]65O)C4)O[C@@H]3C)O[C@@H]2C)C[C@H](O)[C@@H]1O` [digoxin]: the Ki in series [1] (Ki, inhibition of Na+/K+-ATPase activity of PKE) amounted to 1950 ± 150 nM. Besides, the “blood levels when used clinically” value in series [5] was 0.64 to 1.15 nM.

The values are drawn from article PMC5537699 (ACS Omega, 2017).
